Activity calls are given as the source filed them. The calls are words filed in the database; no cut-off is given here.
Each compound was assayed on Mus musculus (assay: Antipsychotic activity in mouse assessed as protection against amphetamine-induced lethality at 5 mg/kg, ip treated 30 mins before amphetamine challenge). Details: not given.
Assay type: functional, organism-based
Design: dose 5 mg/kg
With `COc1ccc(C2CCN(C3=Nc4ccccc4N=C(c4ccccc4)C3)CC2)cc1` the Activity was “inactive”.
For `FC(F)(F)c1cccc(C2CCN(C3=Nc4ccccc4N=C(c4ccccc4)C3)CC2)c1`, the Activity was “inactive”.
For `c1ccc(C2=Nc3ccccc3N=C(N3CCC(C(c4ccccc4)c4ccccc4)CC3)C2)cc1`, the Activity was “inactive”.
`Clc1ccc(C2=CCN(C3=Nc4ccccc4N=C(c4ccccc4)C3)CC2)cc1` was tested, and the Activity was “inactive”.
For `Clc1ccc2c(c1)N=C(N1CCC(c3ccccc3)CC1)CC(c1ccccc1)=N2`, the Activity was “inactive”.
In the case of `c1ccc(C2=Nc3ccccc3N=C(N3CCC(N4CCCCC4)CC3)C2)cc1`, the Activity was “inactive”.
`c1ccc(C2=Nc3ccccc3N=C(N3CCN(c4ccccc4)CC3)C2)cc1` was tested, and the Activity was “inactive”.
In the case of `C1=C(c2ccccc2)CCN(C2=Nc3ccccc3N=C(c3ccccc3)C2)C1`, the Activity was “inactive”.
In the case of `FC(F)(F)c1ccc(C2=CCN(C3=Nc4ccccc4N=C(c4ccccc4)C3)CC2)cc1`, the Activity was “inactive”.
With `Cc1ccc(C2=Nc3ccccc3N=C(N3CCN(C)CC3)C2)cc1` the Activity was “inactive”.
`c1ccc(C2=Nc3ccccc3N=C(N3CCOCC3)C2)cc1` was tested, and the Activity was “inactive”.
For `FC(F)(F)c1ccc(C2CCN(C3=Nc4ccccc4N=C(c4ccccc4)C3)CC2)cc1`, the Activity was “Active”.
With `c1ccc(C2=Nc3ccccc3N=C(N3CCCC3)C2)cc1` the Activity was “inactive”.
For `Clc1ccc(C2=Nc3ccccc3N=C(N3CCC(c4ccccc4)CC3)C2)cc1`, the Activity was “inactive”.
With `c1ccc(C2=Nc3ccccc3N=C(N3CCCCC3)C2)cc1` the Activity was “inactive”.

These compounds were tested on Mus musculus (assay: Antipsychotic activity in mouse assessed as protection against amphetamine-induced lethality at 50 mg/kg, ip treated 30 mins before amphetamine challenge). Details: not given.
Assay type: functional, organism-based
Design: dose 50 mg/kg
`COc1ccc(C2CCN(C3=Nc4ccccc4N=C(c4ccccc4)C3)CC2)cc1` was tested, and the Activity was “inactive”.
For `FC(F)(F)c1cccc(C2CCN(C3=Nc4ccccc4N=C(c4ccccc4)C3)CC2)c1`, the Activity was “inactive”.
In the case of `c1ccc(C2=Nc3ccccc3N=C(N3CCC(C(c4ccccc4)c4ccccc4)CC3)C2)cc1`, the Activity was “Active”.
For `Clc1ccc(C2=CCN(C3=Nc4ccccc4N=C(c4ccccc4)C3)CC2)cc1`, the Activity was “inactive”.
With `Clc1ccc2c(c1)N=C(N1CCC(c3ccccc3)CC1)CC(c1ccccc1)=N2` the Activity was “inactive”.
`c1ccc(C2=Nc3ccccc3N=C(N3CCC(N4CCCCC4)CC3)C2)cc1` was tested, and the Activity was “inactive”.
In the case of `c1ccc(C2=Nc3ccccc3N=C(N3CCN(c4ccccc4)CC3)C2)cc1`, the Activity was “inactive”.
In the case of `C1=C(c2ccccc2)CCN(C2=Nc3ccccc3N=C(c3ccccc3)C2)C1`, the Activity was “inactive”.
For `FC(F)(F)c1ccc(C2=CCN(C3=Nc4ccccc4N=C(c4ccccc4)C3)CC2)cc1`, the Activity was “inactive”.
With `Cc1ccc(C2=Nc3ccccc3N=C(N3CCN(C)CC3)C2)cc1` the Activity was “inactive”.
`c1ccc(C2=Nc3ccccc3N=C(N3CCOCC3)C2)cc1` was tested, and the Activity was “inactive”.
`FC(F)(F)c1ccc(C2CCN(C3=Nc4ccccc4N=C(c4ccccc4)C3)CC2)cc1` was tested, and the Activity was “inactive”.
`c1ccc(C2=Nc3ccccc3N=C(N3CCCC3)C2)cc1` was tested, and the Activity was “inactive”.
In the case of `Clc1ccc(C2=Nc3ccccc3N=C(N3CCC(c4ccccc4)CC3)C2)cc1`, the Activity was “inactive”.
In the case of `c1ccc(C2=Nc3ccccc3N=C(N3CCCCC3)C2)cc1`, the Activity was “inactive”.

Each compound was assayed on Rattus norvegicus (assay: Antipsychotic activity in 0.2 mA footshock-induced conditioned stimulus rat assessed as decrease in avoidance response at 5 mg/kg, ip after 30 mins). Details: not given.
Assay type: functional, organism-based
Design: dose 5 mg/kg
For `COc1ccc(C2CCN(C3=Nc4ccccc4N=C(c4ccccc4)C3)CC2)cc1`, the Activity was “inactive”.
`FC(F)(F)c1cccc(C2CCN(C3=Nc4ccccc4N=C(c4ccccc4)C3)CC2)c1` was tested, and the Activity was “inactive”.
For `c1ccc(C2=Nc3ccccc3N=C(N3CCC(C(c4ccccc4)c4ccccc4)CC3)C2)cc1`, the Activity was “inactive”.
For `Clc1ccc(C2=CCN(C3=Nc4ccccc4N=C(c4ccccc4)C3)CC2)cc1`, the Activity was “inactive”.
In the case of `Clc1ccc2c(c1)N=C(N1CCC(c3ccccc3)CC1)CC(c1ccccc1)=N2`, the Activity was “inactive”.
For `c1ccc(C2=Nc3ccccc3N=C(N3CCC(N4CCCCC4)CC3)C2)cc1`, the Activity was “inactive”.
With `c1ccc(C2=Nc3ccccc3N=C(N3CCN(c4ccccc4)CC3)C2)cc1` the Activity was “inactive”.
With `C1=C(c2ccccc2)CCN(C2=Nc3ccccc3N=C(c3ccccc3)C2)C1` the Activity was “inactive”.
For `FC(F)(F)c1ccc(C2=CCN(C3=Nc4ccccc4N=C(c4ccccc4)C3)CC2)cc1`, the Activity was “inactive”.
In the case of `Cc1ccc(C2=Nc3ccccc3N=C(N3CCN(C)CC3)C2)cc1`, the Activity was “inactive”.
For `c1ccc(C2=Nc3ccccc3N=C(N3CCOCC3)C2)cc1`, the Activity was “inactive”.
In the case of `FC(F)(F)c1ccc(C2CCN(C3=Nc4ccccc4N=C(c4ccccc4)C3)CC2)cc1`, the Activity was “inactive”.
`c1ccc(C2=Nc3ccccc3N=C(N3CCCC3)C2)cc1` was tested, and the Activity was “inactive”.
`Clc1ccc(C2=Nc3ccccc3N=C(N3CCC(c4ccccc4)CC3)C2)cc1` was tested, and the Activity was “inactive”.
In the case of `c1ccc(C2=Nc3ccccc3N=C(N3CCCCC3)C2)cc1`, the Activity was “inactive”.

Each compound was assayed on Rattus norvegicus (assay: Antipsychotic activity in 0.2 mA footshock-induced conditioned stimulus rat assessed as decrease in avoidance response at 20 mg/kg, ip after 30 mins). Details: not given.
Assay type: functional, organism-based
Design: dose 20 mg/kg
For `COc1ccc(C2CCN(C3=Nc4ccccc4N=C(c4ccccc4)C3)CC2)cc1`, the Activity was “inactive”.
With `FC(F)(F)c1cccc(C2CCN(C3=Nc4ccccc4N=C(c4ccccc4)C3)CC2)c1` the Activity was “inactive”.
`c1ccc(C2=Nc3ccccc3N=C(N3CCC(C(c4ccccc4)c4ccccc4)CC3)C2)cc1` was tested, and the Activity was “inactive”.
With `Clc1ccc(C2=CCN(C3=Nc4ccccc4N=C(c4ccccc4)C3)CC2)cc1` the Activity was “inactive”.
For `Clc1ccc2c(c1)N=C(N1CCC(c3ccccc3)CC1)CC(c1ccccc1)=N2`, the Activity was “inactive”.
`c1ccc(C2=Nc3ccccc3N=C(N3CCC(N4CCCCC4)CC3)C2)cc1` was tested, and the Activity was “inactive”.
`c1ccc(C2=Nc3ccccc3N=C(N3CCN(c4ccccc4)CC3)C2)cc1` was tested, and the Activity was “inactive”.
In the case of `C1=C(c2ccccc2)CCN(C2=Nc3ccccc3N=C(c3ccccc3)C2)C1`, the Activity was “inactive”.
For `FC(F)(F)c1ccc(C2=CCN(C3=Nc4ccccc4N=C(c4ccccc4)C3)CC2)cc1`, the Activity was “inactive”.
In the case of `Cc1ccc(C2=Nc3ccccc3N=C(N3CCN(C)CC3)C2)cc1`, the Activity was “inactive”.
With `c1ccc(C2=Nc3ccccc3N=C(N3CCOCC3)C2)cc1` the Activity was “inactive”.
`FC(F)(F)c1ccc(C2CCN(C3=Nc4ccccc4N=C(c4ccccc4)C3)CC2)cc1` was tested, and the Activity was “inactive”.
With `c1ccc(C2=Nc3ccccc3N=C(N3CCCC3)C2)cc1` the Activity was “inactive”.
`Clc1ccc(C2=Nc3ccccc3N=C(N3CCC(c4ccccc4)CC3)C2)cc1` was tested, and the Activity was “inactive”.
In the case of `c1ccc(C2=Nc3ccccc3N=C(N3CCCCC3)C2)cc1`, the Activity was “inactive”.

Each compound was assayed on Mus musculus (assay: Antipsychotic activity in mouse assessed as increase in brain dopamine turnover at 25 to 30 mg/kg, ip pretreated with 200 mg/kg, ip alpha-methyl-p-tyrosine tyrosine hydroxylase inhibitor). Details: not given.
Assay type: functional, organism-based
In the case of `COc1ccc(C2CCN(C3=Nc4ccccc4N=C(c4ccccc4)C3)CC2)cc1`, the Activity was “inactive”.
`FC(F)(F)c1cccc(C2CCN(C3=Nc4ccccc4N=C(c4ccccc4)C3)CC2)c1` was tested, and the Activity was “inactive”.
In the case of `c1ccc(C2=Nc3ccccc3N=C(N3CCC(C(c4ccccc4)c4ccccc4)CC3)C2)cc1`, the Activity was “inactive”.
With `Clc1ccc(C2=CCN(C3=Nc4ccccc4N=C(c4ccccc4)C3)CC2)cc1` the Activity was “Active”.
In the case of `Clc1ccc2c(c1)N=C(N1CCC(c3ccccc3)CC1)CC(c1ccccc1)=N2`, the Activity was “inactive”.
`c1ccc(C2=Nc3ccccc3N=C(N3CCC(N4CCCCC4)CC3)C2)cc1` was tested, and the Activity was “Active”.
For `c1ccc(C2=Nc3ccccc3N=C(N3CCN(c4ccccc4)CC3)C2)cc1`, the Activity was “inactive”.
With `C1=C(c2ccccc2)CCN(C2=Nc3ccccc3N=C(c3ccccc3)C2)C1` the Activity was “inactive”.
For `FC(F)(F)c1ccc(C2=CCN(C3=Nc4ccccc4N=C(c4ccccc4)C3)CC2)cc1`, the Activity was “inactive”.
In the case of `c1ccc(C2=Nc3ccccc3N=C(N3CCOCC3)C2)cc1`, the Activity was “inactive”.
In the case of `FC(F)(F)c1ccc(C2CCN(C3=Nc4ccccc4N=C(c4ccccc4)C3)CC2)cc1`, the Activity was “inactive”.
In the case of `c1ccc(C2=Nc3ccccc3N=C(N3CCCC3)C2)cc1`, the Activity was “inactive”.
With `Clc1ccc(C2=Nc3ccccc3N=C(N3CCC(c4ccccc4)CC3)C2)cc1` the Activity was “inactive”.
With `c1ccc(C2=Nc3ccccc3N=C(N3CCCCC3)C2)cc1` the Activity was “inactive”.

These compounds were tested against Adenylate cyclase (Rattus norvegicus) (UniProt D4A3N4+P26770+Q04400+P26769+Q03343+P40146+Q8CFM9+P21932) (assay: Inhibition of dopamine-sensitive rat brain adenylyl cyclase activity assessed as cAMP level at 10^-4 M). Details: not given.
With `COc1ccc(C2CCN(C3=Nc4ccccc4N=C(c4ccccc4)C3)CC2)cc1` the inhibition was “inactive”.
For `FC(F)(F)c1cccc(C2CCN(C3=Nc4ccccc4N=C(c4ccccc4)C3)CC2)c1`, the inhibition was “inactive”.
For `Clc1ccc(C2=CCN(C3=Nc4ccccc4N=C(c4ccccc4)C3)CC2)cc1`, the inhibition was “inactive”.
`Clc1ccc2c(c1)N=C(N1CCC(c3ccccc3)CC1)CC(c1ccccc1)=N2` was tested, and the inhibition was “inactive”.
For `c1ccc(C2=Nc3ccccc3N=C(N3CCC(N4CCCCC4)CC3)C2)cc1`, the inhibition was “inactive”.
For `C1=C(c2ccccc2)CCN(C2=Nc3ccccc3N=C(c3ccccc3)C2)C1`, the inhibition was “inactive”.
`FC(F)(F)c1ccc(C2=CCN(C3=Nc4ccccc4N=C(c4ccccc4)C3)CC2)cc1` was tested, and the inhibition was “inactive”.
With `FC(F)(F)c1ccc(C2CCN(C3=Nc4ccccc4N=C(c4ccccc4)C3)CC2)cc1` the inhibition was “inactive”.

The compounds below were run on Mus musculus (assay: Toxicity in mouse assessed as depression at 50 mg/kg, ip). Details: in vivo.
Assay type: organism-based
Design: dose 50 mg/kg, route intraperitoneal
With `Clc1ccc(C2=CCN(C3=Nc4ccccc4N=C(c4ccccc4)C3)CC2)cc1` the Activity was “Toxic”.
In the case of `FC(F)(F)c1ccc(C2CCN(C3=Nc4ccccc4N=C(c4ccccc4)C3)CC2)cc1`, the Activity was “Toxic”.
`Clc1ccc(C2=Nc3ccccc3N=C(N3CCC(c4ccccc4)CC3)C2)cc1` was tested, and the Activity was “Toxic”.

What follows are compounds tested on Mus musculus (assay: Toxicity in mouse assessed as ptosis at 50 mg/kg, ip). Details: in vivo.
Assay type: organism-based
Design: dose 50 mg/kg, route intraperitoneal
With `FC(F)(F)c1cccc(C2CCN(C3=Nc4ccccc4N=C(c4ccccc4)C3)CC2)c1` the Activity was “Toxic”.
For `c1ccc(C2=Nc3ccccc3N=C(N3CCC(C(c4ccccc4)c4ccccc4)CC3)C2)cc1`, the Activity was “Toxic”.
For `Clc1ccc(C2=CCN(C3=Nc4ccccc4N=C(c4ccccc4)C3)CC2)cc1`, the Activity was “Toxic”.
`Clc1ccc2c(c1)N=C(N1CCC(c3ccccc3)CC1)CC(c1ccccc1)=N2` was tested, and the Activity was “Toxic”.
For `Clc1ccc(C2=Nc3ccccc3N=C(N3CCC(c4ccccc4)CC3)C2)cc1`, the Activity was “Toxic”.

From ChEMBL document CHEMBL3244110, “Synthesis and biological evaluation of some 2-amino-4-aryl-3H-1,5-benzodiazepine analogues of clozapine” (J Med Chem, 1978)
